Laboratory results reported in publication PMC7315583, “Structure and Dynamics of a Thermostable Alcohol Dehydrogenase from the Antarctic Psychrophile Moraxella sp. TAE123” (ACS Omega, 2020).

Target: MoADH (His-tagged alcohol dehydrogenase from Moraxella sp. TAE123) (Moraxella sp. TAE123, UniProt Q8GIX7)
Parameters: gene adh
Settings: turnover, fixed 35 mM ethanol, NAD+ varied 0-4.0 mM; pH 7.4; 10-53 °C

Sequence of MoADH (His-tagged alcohol dehydrogenase from Moraxella sp. TAE123) (Q8GIX7 whole entry): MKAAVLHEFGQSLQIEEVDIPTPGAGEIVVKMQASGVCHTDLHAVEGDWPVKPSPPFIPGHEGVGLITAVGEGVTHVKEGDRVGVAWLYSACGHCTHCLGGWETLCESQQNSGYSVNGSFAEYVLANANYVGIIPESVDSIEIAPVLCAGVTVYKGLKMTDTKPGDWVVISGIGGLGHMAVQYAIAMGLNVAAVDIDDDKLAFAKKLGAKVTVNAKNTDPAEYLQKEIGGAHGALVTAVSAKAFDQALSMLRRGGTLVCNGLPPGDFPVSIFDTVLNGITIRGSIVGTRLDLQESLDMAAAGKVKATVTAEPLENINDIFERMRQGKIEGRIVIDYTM

With CCO [ethanol] the “NADH absorbance at 340 nm, microplate reader” value was “Ethanol oxidation reaction rates have been measured as a function of temperature”.
